The values below come from US11867698B2, “Fluorogenic pH sensitive dyes and their method of use” (Life Technologies Corporation, priority 2006, dated 2024).

The nature of data set [1]: Fluorimetric pH titration of the sensor molecules in aqueous buffers. It counts as physicochemical. To be noted: for λem / λex / pK / pKa: aqueous buffers; for λem / λex / pK: around 10 μmol/L; for S = F/F0: fluorescent response to the pH changes; for pK: fluorimetric pH titration. On the procedure:
Example 201. Fluorimetric pH titration. The study of the fluorescent response of the sensor molecules to changes in pH was performed in solution in aqueous buffers (in concentrations around 10 μmol/L).
The resulting curve has a pronounced maximum at pH 7.2 (FIG. 2).

Data set [2] is described as follows: Quantum yield determination relative to pH-insensitive standard 180. It counts as physicochemical. On the procedure:
Example 202. Quantum yield determination. Quantum yields at pH=2.0 and pH=10.0 were determined for the compounds 178 and 179 relative to the pH-insensitive standard 180 by comparing integrated absorption and emission spectral curves.
Compounds 178 and 179 were prepared by treatment of the corresponding succinimidyl esters 111 and 129 with methoxyethylamine. The reference standard 180 was obtained in the reaction of commercial succinimidyl 5-carboxy-tetramethylpdodamine (TAMRA-5-SE) with the same amine.

Data set [3] in a line: Fluorescent pH response of transferrin conjugates labeled with pH sensing dyes. It counts as physicochemical. The settings on record: transferrin conjugate of the labeling sensor. As to the method: Labeling of transferrin with pH sensing dyes. All materials are from Invitrogen unless otherwise stated. Dissolve transferrin from human serum (Sigma, T4132) in 0.1 M NaHCO3, pH 8.3, to a concentration of 10 mg/mL. Make a 10 mg/mL solution of the succinimidyl ester of the dye in dry DMSO and sonicate briefly to aid in dissolution of the dye. Add a 10 to 30-fold molar excess of the reactive dye solution to the transferrin solution dropwise while stirring. Note that the volume of dye added depends on the specific dye and the amount of transferrin to be labeled. Protect the reaction vessel from light and stir for ˜1 hour at RT. Purify the conjugate on a P-30M gel filtration column (BioRad, 150-4150) in PBS, pH 7.2. Centrifuge the conjugate at 19,000 rpm for 20 minutes to remove aggregates, if present. Determine the degree of labeling by measuring A560 nm/A280 nm.

A short description of data set [4]: pH titration of labeled E. coli bioparticles. The settings on record: dye labeled E. coli bioparticles 0.2 mg/mL, 50 mM potassium phosphate buffer, pH 1 to 10, FIG. 4. It counts as physicochemical. On the procedure:
Example 303: Labeling E. Coli bioparticles for use in assays of phagocytosis. Escherichia coli Strain K12, lyophilized cells (Sigma, EC1-5G) were resuspended in PBS at 20 mg/mL and vortexed vigorously and sonicated for several minutes. The suspensions were divided into 100 uL aliquots spun down at 10,000×g for 2 minutes, supernatants removed and resuspended in 100 uL of PBS. This was done twice to clean up the E. coli. The amine reactive SE versions of the novel pH dyes were made up in DMSO at concentration of 10 mM. For labeling, 100 uL of the E. coli suspension was combined with 100 uL of the dye stock solution, so 2 mg of E. coli was labeled with 1 umole of dye. The labeling was carried out at 37 C for 45 minutes followed by the same spin down and resuspension procedure as described above 5 times to remove free dye. The final resuspension was 10 mg/mL. pH Titration of labeled E. Coli. The fluorescence of the labeled E. coli was measured at a range of pH values in 50 mM potassium phosphate buffer, from pH 1 to 10, using a Flexstation II (Molecular Devices) plate reader. The conjugates were diluted 1:50 into the potassium phosphate buffers, so the final concentration of the labeled bioparticles was 0.2 mg/mL.

In another data set the test system is neurons. Description: Detection of neuronal cells in mixed neuron/astroglial culture. It counts as cell-based, rat. On the procedure:
Astroglial feeder layers were established for one week in culture on glass bottomed culture dishes, 35 mm diameter, coated with Poly-L-Lysine. Neurons from embryonic day 18 rat hippocampi were dissociated in culture medium, and seeded onto the feeder layers at a density of 25-35,000 cells per milliliter, two milliliters per dish, and allowed to grow in neuronal culture medium plus mitotic inhibitors to prevent glial proliferation.
Cells were pre-stained for 15 minutes with 200 ng/mL Hoercsht to visualize DNA in the nuclei, and 50 ng/mL calcien AM ester to visualize cytoplasm by adding 1000×DMSO stocks of these compounds to the cells in complete medium, then returning them to the cell culture incubator for fifteen minutes at 37 degrees Celsius. Cells were removed, and the medium gently poured off. The cells were immediately placed in 5 uM Compound 129, diluted from a 1 mM DMSO stock into normal saline plus 20 mM HEPES and 20 mM glucose, final pH set to 7.4 with NaOH. The cells were incubated in labeling solution for ten minutes at room temperature, and then gently washed twice with saline (above) minus dye for imaging.

Data set [5] relates to white blood cells (granualcytes). The data set can be described thus: Assay of phagocytic activity in whole blood using bioparticles labeled with pH sensing dyes. It counts as cell-based. On the procedure:
Assay of phagocytic activity using bioparticles labeled with pH sensing dyes. A whole blood sample was collected in a sodium heparin tube. Aliquots of whole blood (100 uL) were combined with labeled E. coli (20 uL of 10 mg/mL) in 12×75 mm flow cytometry Falcon tube, and the samples were incubated in a 37° C. water bath for 15 minutes. A negative control was put on ice. After incubation, the tubes were placed in a rack and the red blood cells were lysed with 1 mL of an ammonium chloride lysis solution (0.187 M NH4Cl, 10 mM KHCO3, 0.095 mM EDTA) for 10 minutes at room temperature. The samples were centrifuged at 1200 rcf for 5 minutes, the supernatants were removed, and the cell pellets were resuspended in HBSS buffer. The resuspended cells were put into a 96 well microplate, 100 uL per well, and the plate was spun to settle the cells to the bottom of the wells. Imaging was done on a Zeiss 200M inverted fluorescence microscope using a 40× objective, TRITC filters, a CoolSnap HQ (Photometrics) ccd camera, and Metamorph (Universal Imaging Corp.) acquisition software. […] This would give an overestimation of phagocytic activity in a plate reader experiment, unless other steps were taken such as including a quencher dye.

Data set [6] is described as follows: Fluorescence response of ratiometric dextran conjugates versus pH. The format is physicochemical. To be noted: 50 mM phosphate buffers.
In a further data set the test system is HeLa cells. The data set can be described thus: Staining of endocytic recycling compartment using transferrin conjugated with pH sensing dye. It counts as cell-based. To be noted: transferrin conjugate 20 ug/mL, 45 minutes, 37 C, FIG. 3. On the procedure:
Staining of endocytic recycling compartment using transferrin conjugated with pH sensing dye (compound 129). HeLa (ATCC) cells were plated in a 96 well microplate at 10,000 cells per well in McCoy 5A media with 5% FBS and 4 uM deferoxamine (Sigma). Cells were grown overnight and then rinsed 2 times in DMEM with-out phenol red plus 0.5% FBS. Transferrin conjugates were applied in same media at 20 ug/mL for 45 minutes at 37 C. Cells were then rinsed 1 time with DMEM and imaged on a Zeiss 200M inverted fluorescence microscope using a 40× objective, TRITC filters, a CoolSnap HQ (Photometrics) ccd camera, and Metamorph (Universal Imaging Corp.) acquisition software.

Take `CCOC(=O)CCCN(CC)c1cc(OC)c(C2=c3cc4c5c(c3Oc3c2cc2c6c3CCCN6CCC2)CCC[N+]=5CCC4)cc1OC` [Compound 155]: in data set [1], the λem amounted to 611 nm, the λex worked out at 586 nm, the “S = F/F0” value amounted to 53 and the pK is 5.0.

In the case of `CN(C)C=Nc1ccc(-c2c3ccc(=[N+](C)C)cc-3oc3cc(N(C)C)ccc23)c(C(=O)O)c1` [Compound 175], in data set [1], the λem is 576 nm, the λex is on record as 550 nm, the “S = F/F0” value came to 10 and the pK is recorded as 7.7.

`CCN(CCCC(=O)NCCCCCN)c1cc(OC)c(-c2c3ccc(=[N+](C)C)cc-3oc3cc(N(C)C)ccc23)cc1N(C)C` [Compound 141]: in data set [1], the λem is given as 588 nm, the λex stood at 560 nm, the “S = F/F0” value amounted to 65 and the pK is 7.4.

The compound `CCN(CCCC(=O)NCCOC)c1cc(OC)c(-c2c3ccc(=[N+](C)C)cc-3oc3cc(N(C)C)ccc23)cc1OC` [Compound 178] returned a pKa in data set [2] (aqueous buffers, Table 4) of 4.6. For the same compound, the “QE (pH = 2.0)” value in data set [2] (relative quantum yield, pH = 2.0, relative to standard 180) was determined as 0.78. Besides, the “QE (pH = 10.0)” value in data set [2] (relative quantum yield, pH = 10.0, relative to standard 180) was found to be 0.008.

With `CCN(CCCC(=O)NCCCCCC(=O)ON1C(=O)CCC1=O)c1cc(OC)c(-c2c3ccc(=[N+](C)C)cc-3oc3cc(N(C)C)ccc23)cc1N(C)C` [Compound 139], in data set [1], the λem came out at 588 nm, the λex is reported as 556 nm, the “S = F/F0” value is given as 80 and the pK was 5.6. The “S = F/F0” value in data set [3] amounted to 15.

With `CCN(CCCC(=O)ON1C(=O)CCC1=O)c1cc(O)c(-c2c3ccc(=[N+](C)C)cc-3oc3cc(N(C)C)ccc23)cc1OC.[Cl-]` [Compound 189, N-(6-(dimethylamino)-9-(4-((4-(2,5-dioxopyrrolidin-1-yloxy)-4-oxobutyl)(ethyl)amino)-2-hydroxy-5-methoxyphenyl)-3H-xanthen-3-ylidene)-N-methylmethanaminium chloride], the “fluorescence intensity versus pH” value in data set [4] is “large increase in fluorescence at acidic pHs”.

In the case of `CCOC(=O)CCCN(CC)c1cc(OC)c(C2=c3cc4c5c(c3Oc3c2cc2c6c3CCCN6CCC2)CCC[N+]=5CCC4)cc1N(C)C` [Compound 162], in data set [1], the λem is 611 nm, the λex amounted to 587 nm, the “S = F/F0” value was 88 and the pK stood at 7.2.

Take “Ethyl 4-((2-dimethylamino)-5-methoxyphenyl-4-tetramethylrhodaminyl)(ethyl)amino) butanoate [Compound 133]”: in data set [1], the λem was determined as 587 nm, the λex is listed as 561 nm, the “S = F/F0” value was determined as 180 and the pK came to 7.3.

As for `CCN(CCCC(=O)OC)c1cc(OC)c(-c2c3ccc(N(C)C)cc3[o+]c3cc(N(C)C)ccc23)cc1N(C)C` [Compound 127, Methyl 4-((2-dimethylamino)-5-methoxyphenyl-4-tetramethylrhodaminyl)(ethyl)amino) butanoate], the “fluorescence upon protonation (titration curve)” value in data set [1] (FIG. 1) was “significant increase in fluorescence upon protonation”. Further, in data set [1], the λem is reported as 587 nm, the λex was determined as 561 nm, the “S = F/F0” value stood at 130 and the pK is on record as 7.3.

With `CCN(CC)c1cc2occ(-c3ncc(C(=O)O)o3)c2cc1OC` [Compound 152], in data set [1], the λem was determined as 393 nm and the λex is 325 nm.

Take `CCN(CCCC(=O)ON1C(=O)CCC1=O)c1cc(OC)c(-c2c3ccc(N(C)C)cc3[o+]c3cc(N(C)C)ccc23)cc1N(C)C` [Compound 129, Succinimidyl 4-((2-Dimethylamino)-5-methoxyphenyl-4-tetramethylrhodaminyl)(ethyl)amino) butanoate]: the “uptake by glial cells shown by acidification of the preparation” value in the data set on neurons is “had in fact taken up”. In addition, the “labeling of neurons relative to astrocytes” value in the data set with neurons (5 uM, ten minutes, room temperature, pH 7.4, TRITC channel) is “appear bright over the dimly labeled astrocytes”. Moreover, the “fluorescence of cells by flow cytometry” value in data set [5] (E. coli labeled with the dye, relative to unlabeled E. coli and iced negative control, FIG. 5) was “increase in fluorescence”. The “staining seen by fluorescence microscopy” value in data set [5] (labeled E. coli, whole blood, 37° C., 15 minutes, FIG. 6) is given as “bright vesicular staining of the phagosomes filled with the engulfed E. coli within the cells”. In data set [3], this compound registered a pKa of 4.2. In addition, the “fluorescence intensity versus pH” value in data set [4] is “large increase in fluorescence at acidic pHs”. For the same compound, the “fluorescence in the red channel versus pH” value in data set [6] (10,000 MW dextran conjugate with rhodamine green, 0.1 mg/mL, ex 540, em 600, FIG. 10A) is listed as “fluorescence does change with pH”; in data set [6] (dextran conjugate with rhodamine green at a higher degree of label than Compound 129, 0.1 mg/mL, ex 540, em 600, FIG. 9A), “fluorescence does change with pH”. Moreover, the staining pattern result with HeLa cells is recorded as “characteristic perinuclear staining pattern of the endocytic recycling compartment”.

Consider `CCOC(=O)CCCN(CC)c1cc(OC)c(-c2cc3ccc(C(=O)OC)cc3[nH]2)cc1OC` [Compound 157], for which, in data set [1], the λem came to 424 nm, the λex turned out to be 349 nm, the “S = F/F0” value was determined as 270 and the pK was 5.4.

As for `CN(C)C=Nc1ccc(-c2c3ccc(=O)cc-3oc3cc(O)ccc23)c(C(=O)O)c1` [Compound 173], the “pH of the maximum of the titration curve” value in data set [1] (FIG. 2) came out at 7.2. For the same compound, the pKa in data set [1] (FIG. 2, read-out: pKa, drop in fluorescence (amidine titration curve)) was roughly 8. In addition, in data set [1], the λem was 517 nm, the λex came to 490 nm, the “S = F/F0” value came out at 200 and the pK turned out to be 7.2. The compound also registered a pKa in data set [1] (pKa, increase in fluorescence (fluorescein titration curve), FIG. 2) of roughly 5.5.
